Consider 4 compounds from patent US20120190613A1, “ECHINOCANDIN DERIVATIVES” (priority 2009, published 2012).

Assay [1] concerns C. albicans 104 ATCC 90028. Kind of assay: MIC by broth microdilution against C. albicans. Type of assay: cell-based. To be noted: 48 hr. Here is the method:
(§1) MIC values (μg/mL) of echinocandin class compounds of the invention against various Candida and Aspergillus species were obtained as follows. Test organisms were obtained from the American Type Culture Collection (Manassas, Va.). The isolates were maintained at −80 ° C., then thawed and sub-cultured one day prior to testing (seven days for Aspergillus strains).
(§2) The mouse serum was heat-inactivated for 30 minutes at 56° C., and filtered through a 0.2 μm low protein binding filter unit prior to use.
(§3) MIC values were determined using broth microdilution. The wells of the daughter plates ultimately contained 180 μL of RPMI-1640 medium with and without mouse serum, 10 μL of drug solution, and 10 μL of yeast or fungal inoculum.
(§4) Prior to susceptibility testing, fungal isolates were removed from frozen storage, thawed at room temperature, and subcultured to Potato Dextrose Agar. The Candida strains were incubated overnight at 35° C. and the Aspergillus strains for 7 days at 25° C. Yeast colonies were inoculated into sterile saline and adjusted to the turbidity of a 0.5 McFarland standard. Inoculums from Aspergillus strains were prepared by washing the surface of an agar slant with 1 mL of sterile saline containing 0.05% of Tween 20. The resulting colloidial suspensions were adjusted to an optical density of 0.09 to 0.11 at λ 625 nm.
(§5) Both the yeast and filamentous fungus suspensions were further diluted 1:100 in RPMI-1640 medium and dispensed into sterile reservoirs and used to inoculate the daughter plates. 10 μL of standardized inoculum was delivered into each well. This yielded a final cell concentration in the daughter plates of approximately 2.5×10^3 colony-forming units/mL. Plates were incubated at 35° C. for approximately 48 hr.
(§6) Following incubation, microplates were viewed from the bottom using a plate viewer.
In general terms: Broth dilution looks for growth in wells or tubes with falling amounts of substance.

In assay [2] the test system is C. parapsilosis 630 ATCC 90018. The assay is described as follows: MIC by broth microdilution against C. parapsilosis. To be noted: 48 hr. Type of assay: cell-based. Here is the method: as §1, §2, §3, §4, §5, §6
The subject of another assay is A. flavus 626 ATCC 64025. Kind of assay: MIC by broth microdilution against A. flavus. The format is cell-based. Particulars: 48 hr, growth reduction of 50%. How it is done: as §1, §2, §3, §4, §5, §6
A further assay relates to C. albicans R303. The assay is described as follows: Mouse candidiasis infection model, C. albicans density in kidneys. The format is in vivo, female CD-1 mice. To be noted: First run; for Difference from 24-hr control / Mean log10 CFU/kidneys (±SD): kidneys at 24 hr; for Mean log10 CFU/kidneys (±SD): neutropenic mice. How it is done:
The objective of these studies was to evaluate the efficacy of test compounds in the mouse candidiasis infection model.
The strain, C. albicans R303 was transferred from frozen storage onto Sabauroud dextrose agar (SDA) plates and grown for ˜24 hr at 35° C. The inoculum was prepared by transferring colonies from the plate to phosphate buffered saline (PBS) and the concentration adjusted to 10^6 CFU/mL with the aid of a spectrophotometer. The stock was diluted 1:9 to prepare the inoculum. Prior to each run the concentration was verified using the dilution plate count method.
The female CD-1 mice used in this study were obtained from Charles River Laboratories, Portage, MI. The animals were approximately seven-weeks-old at the start of the study and weighed about 16-26 g.
In one approach, mice were made neutropenic with IP injections of cyclophosphamide (150 mg/kg in 10 mL/kg) at 4 and 1 day before inoculation. Each animal was inoculated with the appropriate concentration by injecting 0.1 mL of inoculum into a tail vein. The test compounds were administered IP at 2 hr after infection.
The kidneys were collected from four mice in control group 1 (untreated) at 2 hr after infection, and from the remaining mice in the study at 24 hr after infection. Kidneys were removed aseptically from each mouse and were combined in a sterile tube. An aliquot (2 mL) of sterile PBS was added to each tube and the contents homogenized with a tissue homogenizer (Polytron 3100). Serial dilutions of the tissue homogenates were conducted and 0.1 mL aliquots were spread on SDA plates and the plates incubated at 35° C. overnight. The CFU/kidneys were determined from colony counts. Data were analyzed using one-way ANOVA with the Tukey-Kramer Multiple Comparisons Test (GraphPad InStat version 3.06, GraphPad Software, San Diego, Calif.).
Treatments were administered at 2 hr after infection with 2.1×10^5 CFU/mL of the organism. Data are the means of four mice.
Treatments were administered at 2 hr after infection with 6.4×10^5 CFU/mL of the organism. Data are the means of four mice.
Treatments were administered at 2 hr after infection with 3.8×10^5 CFU/mL of the organism. Data are the means of four mice.
Treatments were administered at 2 hr after infection with 3.8×10^5 CFU/rnL of the organism. Data are the means of four mice.

The mark [3] stands for this setting: 1 mg/kg IP 2 hr after infection.
Setting [4] is: 5 mg/kg IP 2 hr after infection.

≈ marks a conversion by molar mass, not a printed value. Marks after values point to notes of the source that are not given here.

Turning to `CCC(C)CC(C)CCCCCCCCC(=O)NC1CC(O)C(NCCNC(=O)OCCOC)NC(=O)C2C(O)CCN2C(=O)C(C(O)CCNC(=O)OCCOC)NC(=O)C(C(O)C(O)c2ccc(O)cc2)NC(=O)C2CC(O)CN2C(=O)C(C(C)O)NC1=O` (stereo not drawn) [Compound 2], the MIC (as a rule, the lowest concentration that inhibits growth of the organism) in assay [1] (0% mouse serum) is 4 µg/mL (≈ 3.08 µM); in assay [1] (50% mouse serum), above 16 µg/mL; in assay [2] (0% mouse serum), 16 µg/mL (≈ 12.3 µM); in assay [2] (50% mouse serum), above 16 µg/mL; in the assay with A. flavus 626 ATCC 64025 (50% mouse serum), 4 µg/mL (≈ 3.08 µM). Besides, the “Difference from 24-hr control” value in the assay with C. albicans R303 (setting [3]) came out at 0.33 ns log10 CFU/kidneys; in the assay with C. albicans R303 (setting [4]), 0.37 ns log10 CFU/kidneys. In addition, the figures for the “Mean log10 CFU/kidneys (±SD)” value in the assay on C. albicans R303 (setting [3]) and in the assay on C. albicans R303 (setting [4]) were 5.10 ± 0.28 log10 CFU/kidneys and 5.14 ± 0.25 log10 CFU/kidneys, respectively.
As to `CCC(C)CC(C)CCCCCCCCC(=O)NC1CC(O)C(NCCNC(=O)CCCCCCCOCCOCCOCCOCCOCCOCCOCCOC)NC(=O)C2C(O)CCN2C(=O)C(C(O)CCNC(=O)CCCCCCCOCCOCCOCCOCCOCCOCCOCCOC)NC(=O)C(C(O)C(O)c2ccc(O)cc2)NC(=O)C2CC(O)CN2C(=O)C(C(C)O)NC1=O` (stereo not drawn) [Compound 4], the MIC in assay [1] (0% mouse serum) is 8 µg/mL (≈ 3.96 µM); in assay [1] (50% mouse serum), above 16 µg/mL; in assay [2] (0% mouse serum), above 16 µg/mL; in assay [2] (50% mouse serum), above 16 µg/mL; with A. flavus 626 ATCC 64025 (0% mouse serum) it was 16 µg/mL (≈ 7.91 µM). Further, the “Difference from 24-hr control” value with C. albicans R303 (setting [3]) amounted to 0.48 ns log10 CFU/kidneys; in the assay with C. albicans R303 (setting [4]), 0.60 ns log10 CFU/kidneys. Moreover, the “Mean log10 CFU/kidneys (±SD)” value stood at 5.25 ± 0.09 log10 CFU/kidneys in the assay with C. albicans R303 (setting [3]) and 5.37 ± 0.11 log10 CFU/kidneys in the assay on C. albicans R303 (setting [4]).
Regarding `CCCCCOc1ccc(-c2ccc(-c3ccc(C(=O)NC4CC(O)C(OCCOCCOCCOCCOC)NC(=O)C5C(O)C(C)CN5C(=O)C(C(C)O)NC(=O)C(C(O)C(O)c5ccc(O)cc5)NC(=O)C5CC(O)CN5C(=O)C(C(C)O)NC4=O)cc3)cc2)cc1` (stereo not drawn) [Compound 5], the MIC in assay [1] (0% mouse serum) was 2 µg/mL (≈ 1.5 µM); in assay [1] (50% mouse serum), 2 µg/mL (≈ 1.5 µM); in assay [2] (0% mouse serum), above 16 µg/mL; in assay [2] (50% mouse serum), above 16 µg/mL; against A. flavus 626 ATCC 64025 (0% mouse serum), 0.125 µg/mL (≈ 0.094 µM); in the assay with A. flavus 626 ATCC 64025 (50% mouse serum) it was 0.5 µg/mL (≈ 0.376 µM). Moreover, the “Difference from 24-hr control” value in the assay on C. albicans R303 (setting [3]) was 0.00 ns log10 CFU/kidneys; with C. albicans R303 (setting [4]), −1.76*** log10 CFU/kidneys. Further, the “Mean log10 CFU/kidneys (±SD)” value turned out to be 4.77 ± 0.06 log10 CFU/kidneys in the assay with C. albicans R303 (setting [3]) and 3.01 ± 0.41 log10 CFU/kidneys with C. albicans R303 (setting [4]). Also, in the assay with C. albicans R303 (5 mg/kg dose, versus 24-hr infected control), the “Reduction of yeast density in kidneys” value stood at 1.76 logs.
`CCCCCOc1ccc(-c2ccc(-c3ccc(C(=O)NC4CC(O)C(OCCCCCCOCCOCCOCCOCCOCCOCCOCCOC)NC(=O)C5C(O)C(C)CN5C(=O)C(C(C)O)NC(=O)C(C(O)C(O)c5ccc(O)cc5)NC(=O)C5CC(O)CN5C(=O)C(C(C)O)NC4=O)cc3)cc2)cc1` (stereo not drawn) [Compound 7]: the MIC in assay [1] (0% mouse serum) is 2 µg/mL (≈ 1.28 µM); in assay [1] (50% mouse serum) it was above 16 µg/mL; in assay [2] (0% mouse serum), above 16 µg/mL; in assay [2] (50% mouse serum), above 16 µg/mL; against A. flavus 626 ATCC 64025 (0% mouse serum) it was 0.25 µg/mL (≈ 0.16 µM); with A. flavus 626 ATCC 64025 (50% mouse serum) it was 2 µg/mL (≈ 1.28 µM). The “Difference from 24-hr control” value with C. albicans R303 (setting [3]) is on record as 0.50 ns log10 CFU/kidneys; with C. albicans R303 (setting [4]), 0.31 ns log10 CFU/kidneys. Besides, the “Mean log10 CFU/kidneys (±SD)” value in the assay on C. albicans R303 (setting [3]) worked out at 5.27 ± 0.17 log10 CFU/kidneys; in the assay with C. albicans R303 (setting [4]), 5.08 ± 0.19 log10 CFU/kidneys.
